Patent publication US11040108B2, “Amino acid- and peptide-steroid conjugates and use thereof” (BRANDEIS UNIVERSITY, priority 2016, dated 2021)
Converted amounts (≈) assume the structure as drawn. “And” between values parts separate entries of the source, which are not always exact repeats. Equal entries are not always repeated. Where two headings read alike, the source gives them in different places.

Key:
A2780cis cells = assay: MTT assay, cytotoxicity against A2780cis; format: cell-based, human
Description: (§1) HeLa, Saos-2, HS-5, HepG2, T98G, and A2780 cells were purchased from American-type Culture Collection (ATCC, USA). A2780cis cell was purchased from Sigma. HeLa cells, HepG-2 cells, and T98G cells were cultured in MEM Medium supplemented with 10% v/v fetal bovine serum, 100 U/mL penicillin, and 100 μg/mL streptomycin. Saos-2 cells were cultured in McCoy's 5a Medium (for Saos-2) supplemented with 15% v/v fetal bovine serum, 100 U/mL penicillin, and 100 μg/mL streptomycin. HS-5 cells were cultured in Dulbecco's Modified Eagle's medium (DMEM) supplemented with 10% v fetal bovine serum (FBS), 100 U/mL penicillin, and 100 μg/mL streptomycin. A2780cis cells were cultured in RPMI 1640 Medium supplemented with 10% v/v fetal bovine serum, 100 U/mL penicillin, and 100 μg/mL streptomycin (cisplatin only necessary every 2-3 passages). All cells were maintained at 37° C. in a humidified atmosphere of 5% CO2.
(§2) An MTT assay was used to test the cytotoxicity. All different cell lines were seeded in 96-well plates at 1×10^5 cells/well for 24 hours followed by removal of the culture medium and subsequent addition of culture medium containing different concentrations of the precursors. At designated time (24/48/72 hours), 10 μL MTT solution (5 mg/mL) was added to each well and incubated at 37° C. for another 4 hours, and then 100 μL of SDS-HCl solution was added to stop the reduction reaction and dissolve the purple formazan. The absorbance of each well at 595 nm was measured by a multimode microplate reader. The cytotoxicity assay was performed three times and the average value of the three measurements was taken.
The activity of conjugate 1a against a platinum-resistant, ovarian cancer cell line (A2780cis) (Behrens et al., “Characterization of a Cis-Diamminedichloroplatinum(Ii)-Resistant Human Ovarian Cancer Cell Line and its Use in Evaluation of Platinum Analogues,” Cancer Res. 47:414 (1987); Masuda et al., “Increased DNA Repair as a Mechanism of Acquired Resistance to Cis-Diamminedichloroplatinum (II) in Human Ovarian Cancer Cell Lines,” Cancer Res. 48:5713 (1988), which are hereby incorporated by reference in their entirety) was first examined. To assess the efficacy of conjugate 1a, the assay was carried out in parallel using the known, clinically used cytotoxic agent, cisplatin.

[1] = system: HS-5 cell line (human bone marrow stroma cell line); assay: MTT assay, cell viability of HS-5; format: cell-based; conditions: for IC50: Homo sapiens, HS5, read-out: IC50 against HS-5
Description: as §1, §2
To verify the selectivity of 1a against cancer cells, the HS-5 cell line (human bone marrow stroma cell line) was used; HS-5 hardly overexpresses ALP on cell surface. […] To further confirm that ALP on cell surface (i.e., as an ectophosphatase) contributed to the inhibitory activity of 1a, A2780cis were incubated with 1a and ALP (1 U/mL).
Additional cell viability assays were carried out using conjugates 1a and 1b, optionally with 3, against HepG2 human liver carcinoma cells, Saos-2 osteosarcoma cells, T98G glioblastoma cells, HS-5 (normal bone marrow stromal cells), A2780 ovarian cancer cells (parental line to A2780cis), and Kuramochi ovarian cancer cells. Conjugate 1a was particularly effective against ovarian and cervical cancer cells.

[2] = system: F-actin in A2780cis cells; assay: Actin staining (CLSM), A2780cis; format: cell-based, human; conditions: 1a 12.5 μM, 12 hours
Description: Cells in exponential growth phase were seeded in confocal dish (3.5 cm) at 1×10^5 to 2×10^5 cells per dish. After putting the dish in incubator for 24 hours, culture medium was removed, and fresh medium containing precursor (12.5 μM 1a for A2780cis, 25 μM 1a for HeLa) was added. After 12 hours, the medium was removed and PBS was used to wash the cells for three times. After fixing by 4% paraformaldehyde for 15 minutes, 1 mL of 0.1% Triton X-100 in PBS buffer was added for 30 minutes. After washing the cells three times by PBS, 1 mL of 0.1% BSA in PBS was added for 30 minutes, and then the cells were washed by PBS for three times. 1 mL of PBS containing 5 unit of Alexa 633 was added to the cells for 1 hour. After removing the buffer and washing the cells three times by PBS, 1 mL of Hoechst (1 μg/mL) was added for 10 minutes. Then, the cells were washed three times with PBS buffer before imaging. […]

F-actin in HeLa cells = assay: Actin staining (CLSM), HeLa; format: cell-based, human; conditions: 1a 25 μM, 12 hours
Description: Cells in exponential growth phase were seeded in confocal dish (3.5 cm) at 1×10^5 to 2×10^5 cells per dish. After putting the dish in incubator for 24 hours, culture medium was removed, and fresh medium containing precursor (12.5 μM 1a for A2780cis, 25 μM 1a for HeLa) was added. After 12 hours, the medium was removed and PBS was used to wash the cells for three times. After fixing by 4% paraformaldehyde for 15 minutes, 1 mL of 0.1% Triton X-100 in PBS buffer was added for 30 minutes. After washing the cells three times by PBS, 1 mL of 0.1% BSA in PBS was added for 30 minutes, and then the cells were washed by PBS for three times. 1 mL of PBS containing 5 unit of Alexa 633 was added to the cells for 1 hour. After removing the buffer and washing the cells three times by PBS, 1 mL of Hoechst (1 μg/mL) was added for 10 minutes. Then, the cells were washed three times with PBS buffer before imaging.
Similar to the case of A2780cis, the change of the viability of the HeLa cells co-incubated with 1a and several specific inhibitors was examined to understand the mechanism of cell death. […] To verify the assemblies of 1b interact with F-actin, actin tracker was used to visualize F-actin filament in HeLa cells.

CC(C)CCC[C@@H](C)C1CC[C@H]2[C@@H]3CC=C4CC(OC(=O)NC(Cc5ccc(OP(=O)(O)O)cc5)C(=O)O)CC[C@]4(C)[C@H]3CC[C@]12C (stereo partly drawn) [1a, Cholesterol-(phospho)D-Tyr]
cell viability of A2780cis treated by 1a with exogenous ALP (A2780cis cells; 1a 12.5 μM + ALP 1 U/mL, 48 hour co-culture): partially rescued
cell viability of A2780cis treated by 1a with ALP inhibitors (A2780cis cells; 1a 12.5 μM + L-Phe or levamisole 1 mM, 48 hours): higher cell viability
cell viability of A2780cis treated by 1a with cell death signaling inhibitors (A2780cis cells; 1a 12.5 μM + zVAD-fmk 50 μM, PJ34 1 μM or Nec-1 45 μM, 48 hours): rescued the cells, but only partially
IC50 against A2780cis (A2780cis cells; 72 hours): 6.3 µg/mL (≈ 9.35 µM)
IC50 (A2780cis cells; Homo sapiens, A2780cis, 48 h, read-out: IC50 against A2780cis, 48 hours): 11 µM and 7.7 µg/mL
cells viable (cell viability test, A2780cis) (A2780cis cells; incubated with 1a at 24 hours): more than 80%
IC50 (A2780cis cells; read-out: IC50 against A2780cis, 72 hours): 9 µM
cell viability / proliferation of HS-5 ([1]; 12.5 μM, 48 hours (FIG. 5A)): innocuous
IC50 ([1]; 48 hours): 32 µM
IC50 ([1]; 72 hours): 21 µM
F-actin filaments [2]: short, ill-defined actin filament
F-actin filaments (F-actin in HeLa cells): considerably decreased actin filaments
